In ChEMBL document CHEMBL1201862, “PubChem BioAssay data set” (2004):
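These data come from cells grown in 96-well plates and exposed to compound for 48 hours at five concentrations. At the GI50, growth is halved.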 Active and inactive are the calls of the source. Rule as the data show it: active = GI50 up to about 1.1 µM and inactive = higher.

Tests used:
Assay in all cases: DTP human tumour cell line panel, 48 h
NCI-H23 = tested on: NCI-H23
SF-295 = tested on: SF-295
SN12C = tested on: SN12C
SR = tested on: SR
SK-OV-3 = tested on: SK-OV-3
PC-3 = tested on: PC-3
M14 = tested on: M14
A549 = tested on: A549
MDA-MB-435 = tested on: MDA-MB-435
MDA-MB-231 = tested on: MDA-MB-231
HCC 2998 = tested on: HCC 2998
SK-MEL-5 = tested on: SK-MEL-5
NCI-H522 = tested on: NCI-H522
NCI/ADR-RES = tested on: NCI/ADR-RES
HOP-92 = tested on: HOP-92
SNB-75 = tested on: SNB-75
T47D = tested on: T47D
OVCAR-3 = tested on: OVCAR-3
HL-60 = tested on: HL-60
BT-549 = tested on: BT-549

Structure (SMILES) | GI50 (NCI-H23) | GI50 (SF-295) | GI50 (SN12C) | GI50 (SR) | GI50 (SK-OV-3) | GI50 (PC-3) | GI50 (M14) | GI50 (A549) | GI50 (MDA-MB-435) | GI50 (MDA-MB-231) | GI50 (HCC 2998) | GI50 (SK-MEL-5) | GI50 (NCI-H522) | GI50 (NCI/ADR-RES) | GI50 (HOP-92) | GI50 (SNB-75) | GI50 (T47D) | GI50 (OVCAR-3) | GI50 (HL-60) | GI50 (BT-549)
O=C1CSc2nc3ccccc3n2/C=N\N1 | > 100 µM (inactive) | > 100 µM (inactive) | > 100 µM (inactive) | > 100 µM (inactive) | > 100 µM (inactive) | > 100 µM (inactive) | > 100 µM (inactive) | > 100 µM (inactive) | > 100 µM (inactive) | > 100 µM (inactive) | > 100 µM (inactive) | > 100 µM (inactive) | > 100 µM (inactive) | > 100 µM (inactive) | > 100 µM (inactive) | – | – | – | – | –
CCN1CCC(O)(/C=C/c2cccc(C)c2)C(C(=O)/C=C/c2cccc(C)c2)C1 (stereo not drawn) | 2.21 µM (inactive) | 2.28 µM (inactive) | 2.47 µM (inactive) | 3.74 µM (inactive) | 3.35 µM (inactive) | 13.3 µM (inactive) | 2.58 µM (inactive) | 2.29 µM (inactive) | 2.02 µM (inactive) | 3.35 µM (inactive) | 1.6 µM (inactive) | 1.88 µM (inactive) | 2.21 µM (inactive) | 2.19 µM (inactive) | 2.17 µM (inactive) | 2.09 µM (inactive) | 2.7 µM (inactive) | 3.48 µM (inactive) | 61.4 µM (inactive) | –
CN(C)c1ccc(/C=N/NC(=O)c2cnc3ccccc3c2)cc1 | > 100 µM (inactive) | 71.4 µM (inactive) | > 100 µM (inactive) | – | 26.5 µM (inactive) | > 100 µM (inactive) | > 100 µM (inactive) | > 100 µM (inactive) | 4.03 µM (inactive) | 37.8 µM (inactive) | 42.1 µM (inactive) | > 100 µM (inactive) | 18.1 µM (inactive) | > 100 µM (inactive) | 49.4 µM (inactive) | 21.9 µM (inactive) | – | > 100 µM (inactive) | > 100 µM (inactive) | 94 µM (inactive)
COc1ccc2[nH]cc(CCNC(=O)[C@H](Cc3ccc(O)cc3)NC(=O)[C@@H](NCC(F)(F)F)C(C)C)c2c1 | > 100 µM (inactive) | 39.7 µM (inactive) | > 100 µM (inactive) | > 100 µM (inactive) | > 100 µM (inactive) | > 100 µM (inactive) | > 100 µM (inactive) | 45.7 µM (inactive) | 25.2 µM (inactive) | > 100 µM (inactive) | – | – | 26.5 µM (inactive) | > 100 µM (inactive) | 75.5 µM (inactive) | – | – | 20.1 µM (inactive) | 41.3 µM (inactive) | 67.5 µM (inactive)
Cc1ccc(NC(=O)c2cc3ccccc3c(/N=N\c3ccccc3O)c2O)c(C)c1 | – | 0.863 µM (active) | – | 0.373 µM (active) | 1.86 µM (inactive) | 1.63 µM (inactive) | 0.839 µM (active) | 2.25 µM (inactive) | – | 2 µM (inactive) | 5.06 µM (inactive) | 1.03 µM (active) | 1.01 µM (active) | 1.54 µM (inactive) | 2.95 µM (inactive) | 0.053 µM (active) | – | 0.37 µM (active) | 1.14 µM (inactive) | –
CC(C)(C)CC(C)(C)NC(=S)NO | > 100 µM (inactive) | > 100 µM (inactive) | > 100 µM (inactive) | > 100 µM (inactive) | > 100 µM (inactive) | > 100 µM (inactive) | > 100 µM (inactive) | > 100 µM (inactive) | > 100 µM (inactive) | > 100 µM (inactive) | > 100 µM (inactive) | > 100 µM (inactive) | > 100 µM (inactive) | > 100 µM (inactive) | 63.7 µM (inactive) | > 100 µM (inactive) | > 100 µM (inactive) | > 100 µM (inactive) | > 100 µM (inactive) | –
OCC1C2CCC3(OCCO3)C12 (stereo not drawn) | 18.2 µM (inactive) | > 100 µM (inactive) | > 100 µM (inactive) | > 100 µM (inactive) | > 100 µM (inactive) | > 100 µM (inactive) | > 100 µM (inactive) | > 100 µM (inactive) | > 100 µM (inactive) | > 100 µM (inactive) | > 100 µM (inactive) | > 100 µM (inactive) | > 100 µM (inactive) | > 100 µM (inactive) | > 100 µM (inactive) | > 100 µM (inactive) | – | > 100 µM (inactive) | – | 20.6 µM (inactive)
O=C(c1cccs1)c1nccc2c1cnc1ccccc12 | 92.7 µM (inactive) | > 100 µM (inactive) | > 100 µM (inactive) | > 100 µM (inactive) | > 100 µM (inactive) | > 100 µM (inactive) | > 100 µM (inactive) | > 100 µM (inactive) | > 100 µM (inactive) | > 100 µM (inactive) | > 100 µM (inactive) | > 100 µM (inactive) | – | > 100 µM (inactive) | 36.6 µM (inactive) | 43.7 µM (inactive) | > 100 µM (inactive) | > 100 µM (inactive) | > 100 µM (inactive) | –
